Test results published in patent publication US11208412B2 (DAEGU-GYEONGBUK MEDICAL INNOVATION FOUNDATION, priority 2017, dated 2021).

Experiments:
Experiment in all cases: Kinase selectivity, DiscoverX scanMAX Kinase assay panel (% control)
Assay type in all cases: binding
[1] = biological target: T1, kinases of the scanMAX Kinase assay panel (Homo sapiens, UniProt P36888, N841I); details: FLT3(N841I); 1 uM
T1 construct: purchased DiscoverX Co. (contract measurement) scanMAX Kinase assay panel
T1 sequence (P36888 27-993 N841I): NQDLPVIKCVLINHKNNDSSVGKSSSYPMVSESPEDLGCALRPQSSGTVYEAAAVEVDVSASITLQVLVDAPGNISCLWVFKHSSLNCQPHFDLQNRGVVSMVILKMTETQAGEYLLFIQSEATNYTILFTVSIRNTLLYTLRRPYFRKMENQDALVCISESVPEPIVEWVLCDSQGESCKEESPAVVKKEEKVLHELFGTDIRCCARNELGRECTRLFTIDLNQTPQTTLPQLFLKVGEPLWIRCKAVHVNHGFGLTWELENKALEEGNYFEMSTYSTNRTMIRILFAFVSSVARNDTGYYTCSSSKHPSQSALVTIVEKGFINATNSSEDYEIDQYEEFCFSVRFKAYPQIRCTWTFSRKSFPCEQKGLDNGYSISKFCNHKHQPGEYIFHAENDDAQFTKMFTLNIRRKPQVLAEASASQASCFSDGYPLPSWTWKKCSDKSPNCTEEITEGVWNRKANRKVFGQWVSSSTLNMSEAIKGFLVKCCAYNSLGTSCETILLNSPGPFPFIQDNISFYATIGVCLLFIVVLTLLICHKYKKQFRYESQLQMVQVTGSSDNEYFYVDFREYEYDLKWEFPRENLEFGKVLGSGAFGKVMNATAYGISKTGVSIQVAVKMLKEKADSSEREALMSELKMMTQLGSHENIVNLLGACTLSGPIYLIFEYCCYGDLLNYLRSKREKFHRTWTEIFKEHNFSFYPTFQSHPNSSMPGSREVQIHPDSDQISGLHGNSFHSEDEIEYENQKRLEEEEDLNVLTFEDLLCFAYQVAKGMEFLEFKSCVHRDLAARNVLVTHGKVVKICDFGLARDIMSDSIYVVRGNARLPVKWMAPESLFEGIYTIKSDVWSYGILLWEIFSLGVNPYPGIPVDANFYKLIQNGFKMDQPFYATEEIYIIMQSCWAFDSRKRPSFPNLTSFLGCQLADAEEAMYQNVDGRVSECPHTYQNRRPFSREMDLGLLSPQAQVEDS
In short: (§1)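 Compounds were tested at 1 uM (in DMSO) against each panel kinase. % control was calculated as (compound − positive control)/(negative control − positive control)×100, where the positive control gives 0% and DMSO gives 100%. Activity toward a kinase was called at % control <35%.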

[2] = biological target: T2, kinases of the scanMAX Kinase assay panel (Homo sapiens, UniProt Q13233); details: MAP3K1; 1 uM
T2 construct: purchased DiscoverX Co. (contract measurement) scanMAX Kinase assay panel
In short: as §1

[3] = biological target: T3, kinases of the scanMAX Kinase assay panel (Homo sapiens, UniProt Q16513); details: PKN2; 1 uM
T3 construct: purchased DiscoverX Co. (contract measurement) scanMAX Kinase assay panel
In short: as §1

[4] = biological target: T4, kinases of the scanMAX Kinase assay panel (Homo sapiens, UniProt Q9BRS2); details: kinase RIOK1; 1 uM in DMSO
T4 construct: purchased DiscoverX Co. (contract measurement) scanMAX Kinase assay panel
T4 sequence (Q9BRS2 1-568): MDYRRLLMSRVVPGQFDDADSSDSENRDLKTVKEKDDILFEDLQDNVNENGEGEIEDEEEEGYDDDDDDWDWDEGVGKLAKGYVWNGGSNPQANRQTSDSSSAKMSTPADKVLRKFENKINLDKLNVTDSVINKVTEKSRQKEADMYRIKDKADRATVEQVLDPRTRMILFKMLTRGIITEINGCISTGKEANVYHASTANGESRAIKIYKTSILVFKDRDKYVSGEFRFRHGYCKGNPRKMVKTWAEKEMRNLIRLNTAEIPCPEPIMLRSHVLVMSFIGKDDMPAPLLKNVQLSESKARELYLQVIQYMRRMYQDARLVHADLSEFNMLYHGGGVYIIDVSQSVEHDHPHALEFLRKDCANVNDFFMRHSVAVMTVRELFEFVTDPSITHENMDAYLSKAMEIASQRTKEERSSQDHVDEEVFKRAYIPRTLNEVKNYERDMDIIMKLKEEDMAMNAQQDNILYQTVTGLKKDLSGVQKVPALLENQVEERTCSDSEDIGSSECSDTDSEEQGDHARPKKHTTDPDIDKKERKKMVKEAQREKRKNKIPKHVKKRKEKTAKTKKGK
In short: as §1

[5] = biological target: T5, kinases of the scanMAX Kinase assay panel (Homo sapiens, UniProt P00519, M351T); details: ABL1(M351T)-phosphorylated; 1 uM
T5 construct: purchased DiscoverX Co. (contract measurement) scanMAX Kinase assay panel
In short: as §1

[6] = biological target: T6, kinases of the scanMAX Kinase assay panel (Homo sapiens, UniProt Q9H4B4); details: PLK3; 1 uM
T6 construct: purchased DiscoverX Co. (contract measurement) scanMAX Kinase assay panel
In short: as §1

[7] = biological target: T7, kinases of the scanMAX Kinase assay panel (Homo sapiens, UniProt P36897); details: kinase TGFBR1; 1 uM in DMSO
T7 construct: purchased DiscoverX Co. (contract measurement) scanMAX Kinase assay panel
T7 sequence (P36897 34-503): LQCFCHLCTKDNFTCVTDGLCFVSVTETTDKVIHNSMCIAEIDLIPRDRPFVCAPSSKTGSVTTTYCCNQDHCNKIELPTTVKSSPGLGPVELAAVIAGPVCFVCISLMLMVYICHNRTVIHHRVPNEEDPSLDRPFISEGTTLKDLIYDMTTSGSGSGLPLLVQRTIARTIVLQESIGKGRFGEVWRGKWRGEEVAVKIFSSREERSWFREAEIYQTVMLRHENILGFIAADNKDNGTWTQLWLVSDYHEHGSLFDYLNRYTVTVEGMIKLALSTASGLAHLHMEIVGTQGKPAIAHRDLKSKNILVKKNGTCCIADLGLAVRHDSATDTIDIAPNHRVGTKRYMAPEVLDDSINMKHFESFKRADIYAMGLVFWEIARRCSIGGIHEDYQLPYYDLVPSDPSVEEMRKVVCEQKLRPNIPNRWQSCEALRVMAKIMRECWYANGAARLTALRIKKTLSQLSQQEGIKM
In short: as §1

[8] = biological target: T8, kinases of the scanMAX Kinase assay panel (Homo sapiens, UniProt O15075); details: DCAMKL1; 1 uM
T8 construct: purchased DiscoverX Co. (contract measurement) scanMAX Kinase assay panel
In short: as §1

[9] = biological target: T9, kinases of the scanMAX Kinase assay panel (Homo sapiens, UniProt Q9H4A3); details: kinase WNK1; 1 uM in DMSO
T9 construct: purchased DiscoverX Co. (contract measurement) scanMAX Kinase assay panel
In short: as §1

T3 sequence (Q16513 whole entry): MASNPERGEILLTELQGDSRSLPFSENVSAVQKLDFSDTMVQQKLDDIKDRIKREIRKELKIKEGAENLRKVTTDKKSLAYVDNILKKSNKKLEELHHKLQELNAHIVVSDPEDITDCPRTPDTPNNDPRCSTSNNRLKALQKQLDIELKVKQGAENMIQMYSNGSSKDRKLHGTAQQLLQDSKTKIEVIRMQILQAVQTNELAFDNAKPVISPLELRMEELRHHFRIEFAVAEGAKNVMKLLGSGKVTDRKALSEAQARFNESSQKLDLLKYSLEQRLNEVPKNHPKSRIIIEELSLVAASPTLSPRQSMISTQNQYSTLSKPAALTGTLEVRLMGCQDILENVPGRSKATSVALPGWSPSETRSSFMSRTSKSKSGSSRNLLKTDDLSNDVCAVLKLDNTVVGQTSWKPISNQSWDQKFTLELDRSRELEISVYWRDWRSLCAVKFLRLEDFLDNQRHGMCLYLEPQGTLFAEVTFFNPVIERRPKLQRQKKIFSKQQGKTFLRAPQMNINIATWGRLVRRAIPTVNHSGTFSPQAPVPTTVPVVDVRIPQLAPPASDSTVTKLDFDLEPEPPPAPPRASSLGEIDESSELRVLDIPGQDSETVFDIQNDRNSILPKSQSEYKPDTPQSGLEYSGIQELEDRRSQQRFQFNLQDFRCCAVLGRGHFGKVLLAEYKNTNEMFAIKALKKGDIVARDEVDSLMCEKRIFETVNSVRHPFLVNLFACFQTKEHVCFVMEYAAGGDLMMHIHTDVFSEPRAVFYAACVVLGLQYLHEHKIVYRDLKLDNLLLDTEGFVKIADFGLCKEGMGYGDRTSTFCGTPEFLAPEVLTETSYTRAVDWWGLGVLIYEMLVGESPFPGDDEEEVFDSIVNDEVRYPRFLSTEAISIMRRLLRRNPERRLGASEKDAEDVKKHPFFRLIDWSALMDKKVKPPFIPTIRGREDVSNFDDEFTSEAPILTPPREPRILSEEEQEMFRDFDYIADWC
T8 sequence (O15075 whole entry): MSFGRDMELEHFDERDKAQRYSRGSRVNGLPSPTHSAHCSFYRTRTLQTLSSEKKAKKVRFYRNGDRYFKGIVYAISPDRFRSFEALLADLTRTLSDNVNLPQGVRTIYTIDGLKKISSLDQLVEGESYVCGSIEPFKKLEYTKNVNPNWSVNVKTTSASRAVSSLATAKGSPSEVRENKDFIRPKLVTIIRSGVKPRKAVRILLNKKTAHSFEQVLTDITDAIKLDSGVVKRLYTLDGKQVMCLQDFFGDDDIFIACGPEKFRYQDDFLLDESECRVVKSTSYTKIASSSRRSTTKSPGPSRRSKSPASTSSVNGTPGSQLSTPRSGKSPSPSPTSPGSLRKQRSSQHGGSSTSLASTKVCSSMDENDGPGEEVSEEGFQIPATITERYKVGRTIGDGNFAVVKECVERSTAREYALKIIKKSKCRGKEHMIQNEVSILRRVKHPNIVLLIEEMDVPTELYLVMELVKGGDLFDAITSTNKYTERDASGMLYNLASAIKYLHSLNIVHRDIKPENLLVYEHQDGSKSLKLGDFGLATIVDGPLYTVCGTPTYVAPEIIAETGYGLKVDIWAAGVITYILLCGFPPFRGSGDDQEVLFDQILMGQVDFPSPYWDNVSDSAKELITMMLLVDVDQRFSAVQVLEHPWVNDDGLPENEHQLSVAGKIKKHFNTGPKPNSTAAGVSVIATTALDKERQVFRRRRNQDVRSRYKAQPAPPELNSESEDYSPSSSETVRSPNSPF
T2 sequence (Q13233 whole entry): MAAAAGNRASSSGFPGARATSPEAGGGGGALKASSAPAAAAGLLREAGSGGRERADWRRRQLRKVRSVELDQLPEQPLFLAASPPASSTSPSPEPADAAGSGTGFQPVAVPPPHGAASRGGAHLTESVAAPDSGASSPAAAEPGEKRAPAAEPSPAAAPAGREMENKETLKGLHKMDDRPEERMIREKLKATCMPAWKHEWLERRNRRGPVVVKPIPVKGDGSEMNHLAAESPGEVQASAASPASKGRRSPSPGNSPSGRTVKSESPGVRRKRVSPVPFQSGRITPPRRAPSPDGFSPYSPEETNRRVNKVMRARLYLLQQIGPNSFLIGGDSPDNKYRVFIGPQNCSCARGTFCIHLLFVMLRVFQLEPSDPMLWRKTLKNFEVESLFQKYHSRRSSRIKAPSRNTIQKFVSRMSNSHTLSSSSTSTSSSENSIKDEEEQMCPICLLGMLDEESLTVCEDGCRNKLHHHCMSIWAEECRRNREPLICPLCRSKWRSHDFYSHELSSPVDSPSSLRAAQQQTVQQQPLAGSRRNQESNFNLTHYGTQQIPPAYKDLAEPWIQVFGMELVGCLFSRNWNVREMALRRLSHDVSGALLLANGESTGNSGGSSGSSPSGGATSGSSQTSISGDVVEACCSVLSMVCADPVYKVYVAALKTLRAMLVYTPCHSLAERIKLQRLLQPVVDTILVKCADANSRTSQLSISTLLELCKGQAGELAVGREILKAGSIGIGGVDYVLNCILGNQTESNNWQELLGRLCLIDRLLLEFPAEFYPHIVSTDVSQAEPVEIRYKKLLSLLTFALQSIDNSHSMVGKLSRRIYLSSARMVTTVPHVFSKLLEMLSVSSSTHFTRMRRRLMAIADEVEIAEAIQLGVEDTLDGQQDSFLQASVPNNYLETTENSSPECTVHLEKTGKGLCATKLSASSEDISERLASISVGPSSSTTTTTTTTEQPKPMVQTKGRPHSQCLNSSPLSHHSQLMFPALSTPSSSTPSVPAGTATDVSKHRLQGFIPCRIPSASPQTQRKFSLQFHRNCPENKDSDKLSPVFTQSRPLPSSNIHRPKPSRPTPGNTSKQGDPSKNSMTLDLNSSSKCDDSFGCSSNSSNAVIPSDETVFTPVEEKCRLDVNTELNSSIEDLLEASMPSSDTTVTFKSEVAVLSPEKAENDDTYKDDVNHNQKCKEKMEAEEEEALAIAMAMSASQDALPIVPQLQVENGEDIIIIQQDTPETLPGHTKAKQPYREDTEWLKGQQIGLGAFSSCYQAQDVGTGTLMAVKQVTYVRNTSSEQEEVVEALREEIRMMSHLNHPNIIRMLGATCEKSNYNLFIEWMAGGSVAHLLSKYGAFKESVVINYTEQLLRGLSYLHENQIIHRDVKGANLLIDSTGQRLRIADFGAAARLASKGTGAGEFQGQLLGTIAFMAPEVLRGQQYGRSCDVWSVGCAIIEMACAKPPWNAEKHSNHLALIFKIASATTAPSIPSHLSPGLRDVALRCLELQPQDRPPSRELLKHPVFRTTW
T6 sequence (Q9H4B4 whole entry): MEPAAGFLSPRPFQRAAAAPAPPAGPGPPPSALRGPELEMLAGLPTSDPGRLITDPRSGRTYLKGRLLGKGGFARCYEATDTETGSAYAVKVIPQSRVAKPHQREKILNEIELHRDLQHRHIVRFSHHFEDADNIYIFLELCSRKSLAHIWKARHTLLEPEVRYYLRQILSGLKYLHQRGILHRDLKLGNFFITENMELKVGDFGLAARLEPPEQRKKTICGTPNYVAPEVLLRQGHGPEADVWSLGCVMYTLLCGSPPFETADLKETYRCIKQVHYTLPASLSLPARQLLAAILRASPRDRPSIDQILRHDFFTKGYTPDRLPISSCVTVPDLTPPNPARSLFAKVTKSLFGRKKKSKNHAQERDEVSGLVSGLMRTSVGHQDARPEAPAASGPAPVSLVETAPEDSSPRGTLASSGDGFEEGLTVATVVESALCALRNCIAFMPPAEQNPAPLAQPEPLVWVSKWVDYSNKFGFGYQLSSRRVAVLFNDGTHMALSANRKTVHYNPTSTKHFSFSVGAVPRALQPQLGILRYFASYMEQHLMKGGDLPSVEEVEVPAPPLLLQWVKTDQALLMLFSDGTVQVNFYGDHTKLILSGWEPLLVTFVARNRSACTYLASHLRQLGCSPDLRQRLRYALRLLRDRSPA

Structure (SMILES)	remaining binding at 1 µM [1]	remaining binding at 1 µM [2]	remaining binding at 1 µM [3]	remaining binding at 1 µM [4]	remaining binding at 1 µM [5]	remaining binding at 1 µM [6]	remaining binding at 1 µM [7]	remaining binding at 1 µM [8]	remaining binding at 1 µM [9]
CC1(Nc2nc(Nc3cnn([C@H]4CCN(C5COC5)C[C@@H]4F)c3Cl)nc3[nH]cc(C#N)c23)CC1 [Example 52, 2-((5-chloro-1-((3S,4S)-3-fluoro-1-(oxetane-3-yl)piperidine-4-yl)-1H-pyrazole-4-yl)amino)((1-methylcyclopropyl)amino)-7H-pyrrolo[2,3-d]pyrimidine-5-carbonitrile]	0%	81%	78%	0.7%	2.6%	99%	91%	34%	99%
CNc1nc(Nc2ccc(C(=O)N3CCOCC3)cc2OC)nc2[nH]cc(C#N)c12 [Example 1, 2-((2-methoxy-4-(morpholine-4-carbonyl)phenyl)amino)-4-(methylamino)-7H-pyrrolo[2,3-d]pyrimidine-5-carbonitrile]	90%	100%	53%	100%	62%	57%	5.1%	57%	70%
CCNc1nc(Nc2ccc(C(=O)N3CCC(N4CCOCC4)CC3)cc2OC)nc2[nH]cc(C(F)(F)F)c12 [Example 104, (4-((4-(ethylamino)-5-(trifluoromethyl)-7H-pyrrolo[2,3-d]pyrimidine-2-yl)amino)-3-methoxyphenyl)(4-morpholinopiperidine-1-yl)methanone]	51%	83%	100%	100%	100%	89%	100%	49%	100%
